Laboratory results taken from US20070219224A1, “Compositions and Methods Relating to Pyrimidine Synthesis Inhibitors” (UAB RESEARCH FOUNDATION, THE, priority 2004, published 2007).
“Also recorded” adds a separate entry of the source. Marks after values point to notes of the source that are not given here.

Key:
[1] = system: RSV-infected BALB/c mice; assay: Alveolar fluid clearance (AFC) in RSV-infected mice at day 2 p.i.; type: in vivo; parameters: effect of uridine in the AFC instillate on the A77-1726 effect on AFC: dose or concentration left out as unconfirmed; settings: for effect on RSV-mediated inhibition of AFC at day 2 p.i. (in words): added to the AFC instillate; for effect on RSV-mediated inhibition of AFC at d2 (in words): systemic treatment (leflunomide oral gavage; uridine, 6-MP i.p.)
Procedure: Preparation of viral inocula and infection of mice. […] J. Physiol. Lung Cell Mol. Physiol. […] Data for each experimental group was derived from a minimum of 2 independent infections.
(§1) Systemic inhibition of de novo pyrimidine and purine synthesis. Leflunomide (5-methylisoxazole-4-[4-trifluoromethyl]carboxanilide, 35 mg/kg in distilled water containing 1% methylcellulose) was administered once daily by oral gavage in a volume of 300 μl/mouse for 8 days prior to infection, then throughout the infection period. Vehicle controls were gavaged with an equivalent volume of 1% methylcellulose in distilled water.
To systemically block de novo pyrimidine synthesis, mice were gavaged once daily for 8 days with […] of the dihydro-orotate reductase (DHOR) inhibitor leflunomide ([…] suspended in 1% methylcellulose) or vehicle prior to infection, then at 0 and 24 hours p.i. AFC studies were performed at 48 hours p.i., with no additions to the AFC instillate.
(§2) AFC studies were performed on anesthetized, ventilated BALB/c mice with normal body temperature and blood gases, over a 30 minute period after intratracheal instillation of 0.3 ml of isosmolar NaCl containing 5% fatty acid-free BSA. The number of mice analyzed per group is listed in the relevant bar of each graph.

[2] = system: RSV-infected BALB/c mice; assay: Lung water content (wet:dry weight ratio) after RSV infection; type: in vivo
Procedure: (§3) Preparation of viral inocula and infection of mice. Preparation of viral stocks and intranasal infection of eight to twelve week-old pathogen-free BALB/c mice of either sex with RSV strain A2 (10^6 PFU in 100 μl) were performed as described in Davis et al., “Nucleotide-mediated inhibition of alveolar fluid clearance in BALB/c mice after respiratory syncytial virus infection,” Am. J. Physiol. Lung Cell Mol. Physiol. 286:L112-L120. (2004). Data for each experimental group was derived from a minimum of 2 independent infections.
as §1, with “water. […]” for “water.”

[3] = system: uninfected BALB/c mice; assay: Alveolar fluid clearance (AFC) in uninfected or mock-infected mice; type: in vivo; settings: uninfected mice
Procedure: Systemic inhibition of de novo pyrimidine and purine synthesis. […] Vehicle controls were gavaged with an equivalent volume of 1% methylcellulose in distilled water. Uridine (1 g/kg in 0.9% NaCl) was administered by i.p. injection every 12 hours in a volume of 100 μl (8). […]
as §2

[4] = system: RSV strain A2; assay: RSV replication in mouse lungs; type: in vivo, Respiratory syncytial virus; settings: RSV-infected mice, day 2 p.i.; systemic treatment
Procedure: as §3
as §1, with “water. […]” for “water.”

[5] = system: IFN-α, IL-1β, KC, TNF-α in BALF; assay: Measurement of proinflammatory cytokines in BALF (ELISA); type: in vivo, BALB/c mice; settings: RSV-infected mice, d2
Procedure: as §3
(§4) Bronchoalveolar lavage. Bronchoalveolar lavage fluid (BALF) was collected as previously described in Davis et al., (2004), using 1 ml of sterile normal saline for cytokine ELISAs, or 0.3 ml of sterile saline for nucleotide assays. Lavagates were centrifuged to remove cells and supernatants stored at −80° C.
as §1, with “water. […].” for “water.”
Measurement of proinflammatory cytokines in BALF. Cytokine levels were determined using Quantikine M ELISA kits (R & D Systems), in accordance with manufacturer's instructions.

[6] = type: in vivo
Procedure: as §3
as §1, with “water. […]” for “water.”

[7] = system: UTP/ATP content of BALF; assay: Measurement of nucleotides (UTP/ATP content) in BALF of RSV-infected mice; type: in vivo, BALB/c mice; settings: d2
Procedure: as §3, §4
Measurement of nucleotides in BALF. Endogenous nucleotidases in BALF were heat denatured (100° C., 3 minutes) and UTP/ATP content measured using the […] and luciferine-luciferase assays, respectively.
as §1, with “water. […]” for “water.”

[8] = RSV-infected mice, d2, inhibitor 100 μM in AFC instillate (Table 5)
[9] = RSV-infected mice, day 2 p.i., final concentration 25 μM (Table 6)

CNCCC(Oc1ccc(C(F)(F)F)cc1)c1ccccc1 (stereo not drawn) [Fluoxetine]
AFC (mean % AFC ± SE) ([1]; RSV-infected mice, d2, inhibitor 10 μM in AFC instillate (Table 5)): 34.54 ± 0.79 % | AFC30BASAL (mean % basal AFC after 30 minutes ± SE) ([1]; RSV-infected mice, day 2 p.i., final concentration 10 μM (Table 6)): 34.54 ± 0.79 % | effect on RSV-mediated inhibition of AFC at day 2 p.i. (in words) [1]: blocked RSV-mediated inhibition of AFC

C[C@]1(C2CCCC2)Cc2cc(OCC(=O)O)c(Cl)c(Cl)c2C1=O [R(+)-IAA 94, R(+)-[(6,7-dichloro-2-cyclopentyl-2,3-dihydro-2-methyl-1-oxo-1H-inden-5yl)-oxy] acetic acid 94]
AFC (mean % AFC ± SE) [1, 8]: 34.25 ± 1.98 % | effect on RSV-mediated inhibition of AFC at day 2 p.i. (in words) [1]: blocked

apyrase
effect on RSV-mediated inhibition of AFC at day 2 p.i. (in words) [1]: reversed

COc1ccc(Cl)cc1C(=O)NCCc1ccc(S(=O)(=O)NC(=O)NC2CCCCC2)cc1 [Glibenclamide]
AFC (mean % AFC ± SE) [1, 8]: 24.24 ± 4.24% | effect on RSV-mediated inhibition of AFC at day 2 p.i. (in words) [1]: unaffected

O=C(O)c1cc([N+](=O)[O-])ccc1NCCCc1ccccc1 [NPPB, 5-nitro-2-(3-phenylpropylamino) benzoic acid]
AFC (mean % AFC ± SE) [1, 8]: 32.70 ± 2.18 % | AFC30BASAL (mean % basal AFC after 30 minutes ± SE) ([1]; RSV-infected mice, day 2 p.i., final concentration 100 μM (Table 6)): 35.12 ± 1.94 % | effect on RSV-mediated inhibition of AFC at day 2 p.i. (in words) [1]: blocked

CCN(CC)CCOc1ccc(C(=C(Cl)c2ccccc2)c2ccccc2)cc1 [Clomiphene]
AFC (mean % AFC ± SE) ([1]; RSV-infected mice, d2, inhibitor 20 μM in AFC instillate (Table 5)): 31.05 ± 2.65 % | AFC30BASAL (mean % basal AFC after 30 minutes ± SE) ([1]; RSV-infected mice, day 2 p.i., final concentration 20 μM (Table 6)): 31.0 ± 2.67 % | effect on RSV-mediated inhibition of AFC at day 2 p.i. (in words) [1]: blocked

C/C(O)=C(\C#N)C(=O)Nc1ccc(C(F)(F)F)cc1 [A77-1726]
lung wet:dry weight ratios, intranasal treatment ([2]; A77-1726 intranasal): normalization of lung wet:dry weight ratios | effect on RSV-induced inhibition of AFC, intranasal treatment (in words) ([1]; 50 μM in 100 μl normal saline intranasally at 24 hours p.i.): completely blocked | AFC30BASAL (mean % basal AFC after 30 minutes ± SE) ([1]; RSV day 2 p.i., 50 μM in 100 μl normal saline intranasally 24 hours after infection): 32.68 ± 1.1 % | AFC30BASAL (mean % basal AFC after 30 minutes ± SE) [1, 9]: 34.06 ± 1.88 % | effect on RSV-mediated inhibition of AFC at day 2 p.i. (in words) [1]: prevented; also recorded: reverses RSV-mediated inhibition of AFC | AFC30BASAL (mean % basal AFC after 30 minutes ± SE) ([3]; 50 μM in 100 μl normal saline intranasally 24 hours prior to AFC assay): 23.19 ± 5.95 %

O=C(O)c1cccnc1Nc1cccc(C(F)(F)F)c1 [Niflumic acid]
AFC (mean % AFC ± SE) [1, 8]: 20.28 ± 1.53% | effect on RSV-mediated inhibition of AFC at day 2 p.i. (in words) [1]: unaffected

COc1c(C)c2c(c(O)c1C/C=C(\C)CCC(=O)O)C(=O)OC2 [MPA, mycophenolic acid]
AFC30BASAL (mean % basal AFC after 30 minutes ± SE) [1, 9]: 26.2 ± 1.7 % | effect on RSV-mediated inhibition of AFC at day 2 p.i. (in words) [1]: only a minor effect | effect on RSV-mediated inhibition of AFC at day 2 p.i. (in words) ([1]; listed as mycophenolic acid): not and only a small blocking effect

N=C(N)NC(=O)c1nc(Cl)c(N)nc1N [AMIL, amiloride]
AFC (mean % AFC ± SE) with amiloride in instillate ([1]; RSV-infected mice, d2, 1.5 mM amiloride added to the instillate): 22.82 ± 1.92% | AFC (mean % AFC ± SE) with amiloride in instillate ([3]; 1.5 mM amiloride added to the instillate): 14.65 ± 1.59 %

O=c1[nH]cnc2nc[nH]c12 [hypoxanthine]
effect of hypoxanthine in the AFC instillate on the MPA effect on AFC ([1]; RSV-infected mice, day 2 p.i., 50 mM hypoxanthine as printed): fully reversed; also recorded: blocked

Sc1ncnc2nc[nH]c12 [6-MP, 6-mercaptopurine]
lung water content (wet:dry weight ratio) (in words) ([2]; day 2, systemic treatment): did not alter lung wet:dry weight ratios | virus replication in lung tissue at d2 [4]: no significant inhibitory effect | AFC30BASAL (mean % basal AFC after 30 minutes ± SE) [1, 9]: 26.31 ± 1.85 % | effect on RSV-mediated inhibition of AFC at day 2 p.i. (in words) [1]: only a minor effect | effect on RSV-mediated inhibition of AFC at day 2 p.i. (in words) ([1]; listed as 6-mercaptopurine): not and only a small blocking effect | effect on RSV-mediated inhibition of AFC at d2 (in words) [1]: no effect on AFC | BALF proinflammatory cytokine levels (IFN-α, IL-1β, KC, TNF-α) (in words) [5]: comparable decline | IFN-α, mean cytokine concentration in BALF ± SE ([5]; systemic treatment): 105 ± 14 pg/mL | IL-1β, mean cytokine concentration in BALF ± SE ([5]; systemic treatment): 9 ± 3 pg/mL | KC, mean cytokine concentration in BALF ± SE ([5]; systemic treatment): 329 ± 63 pg/mL | TNF-α, mean cytokine concentration in BALF ± SE ([5]; systemic treatment): 0*** pg/ml | tolerance to anesthesia ([6]; 6-MP 35 mg/kg i.p. every 24 hours): poor tolerance to anesthesia (resulting in sporadic deaths) | body weight loss after RSV infection ([6]; D1 and d2 p.i., versus untreated RSV-infected mice): significant increase in body weight loss | body weight during the pretreatment (preinfection) period ([6]; before RSV infection, leflunomide 8 days, 6-MP 5 days): significant loss of body weight

O=c1ccn([C@@H]2O[C@H](COP(=O)(O)OP(=O)(O)OP(=O)(O)O)[C@@H](O)[C@H]2O)c(=O)[nH]1 [UTP]
effect of UTP in the AFC instillate on the VRAC inhibitor effect on AFC ([1]; RSV-infected mice, d2, 500 nM UTP): reversed

CC/C(=C(\c1ccccc1)c1ccc(OCCN(C)C)cc1)c1ccccc1 [Tamoxifen]
AFC (mean % AFC ± SE) ([1]; RSV-infected mice, d2, inhibitor 25 μM in AFC instillate (Table 5)): 34.50 ± 0.94 % | AFC30BASAL (mean % basal AFC after 30 minutes ± SE) [1, 9]: 34.5 ± 0.95 % | effect on RSV-mediated inhibition of AFC at day 2 p.i. (in words) [1]: blocked RSV-mediated inhibition of AFC

O=c1c(-c2ccc(O)cc2)coc2cc(O)cc(O)c12 [Genistein]
AFC30BASAL (mean % basal AFC after 30 minutes ± SE) [1, 9]: 20.39 ± 0.73% | effect on RSV-mediated inhibition of AFC at day 2 p.i. (in words) [1]: not recapitulated; also recorded: not replicated

O=c1ccn([C@@H]2O[C@H](CO)[C@@H](O)[C@H]2O)c(=O)[nH]1 [Uridine]
effect of concomitant uridine on the leflunomide effect on lung water content ([2]; day 2 p.i.): reversed this effect; also recorded: prevented this effect | virus replication in lung tissue at d2 [4]: no effect on virus replication; also recorded: unaffected | effect of uridine in the AFC instillate on the A77-1726 effect on AFC ([1]; RSV-infected mice, day 2 p.i.): fully reversed; also recorded: blocked | AFC30BASAL (mean % basal AFC after 30 minutes ± SE) ([1]; RSV-infected mice, day 2 p.i., leflunomide 5 mg/kg oral gavage once daily, uridine 1 mg/kg i.p. q12h): 22.89 ± 2.22% | effect of concomitant uridine on the leflunomide effect on AFC ([1]; RSV-infected mice, day 2 p.i., uridine i.p. throughout the leflunomide treatment period): prevented; also recorded: reversed | effect on RSV-mediated inhibition of AFC at d2 (in words) [1]: no effect on AFC | effect of concomitant uridine on the leflunomide effect on BALF nucleotides [7]: reversed the effect of leflunomide on BALF UTP and ATP levels; also recorded: caused a significant increase in the BALF nucleotide content over that in untreated RSV-infected mice | effect of concomitant uridine on the leflunomide effect on BALF cytokines ([5]; exception IFN-α): only partially reversed | effect of concomitant uridine on the leflunomide effect on weight loss ([6]; RSV-infected mice, D1 and d2): did not prevent this effect
